In publication PMC10388362, “Fluorescent Ligands Enable Target Engagement Studies for the Intracellular Allosteric Binding Site of the Chemokine Receptor CXCR2” (Journal of Medicinal Chemistry, 2023):

What was measured:
CXCR2 [1] = target: T1, CXCR2 (Homo sapiens, UniProt P25025); experiment: Membrane-based NanoBRET competition assay with 9a; assay type: binding; details: competition with 9a (50 nM), CXCR2_Nluc membranes
T1 construct: Promega pNLF1-C (Nluc) #CXCR20TN00; host or cells: HEK293T, transient transfection (PEI)
T1 sequence (P25025 1-360): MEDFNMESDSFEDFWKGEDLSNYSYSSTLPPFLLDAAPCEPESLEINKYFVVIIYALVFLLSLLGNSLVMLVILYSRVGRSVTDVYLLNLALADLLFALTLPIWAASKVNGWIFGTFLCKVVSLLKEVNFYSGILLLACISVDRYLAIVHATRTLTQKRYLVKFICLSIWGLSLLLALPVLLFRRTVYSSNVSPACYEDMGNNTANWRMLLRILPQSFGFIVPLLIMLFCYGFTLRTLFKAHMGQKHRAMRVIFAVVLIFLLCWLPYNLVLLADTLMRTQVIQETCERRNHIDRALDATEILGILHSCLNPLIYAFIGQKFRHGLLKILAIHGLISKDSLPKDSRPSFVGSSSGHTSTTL
Description: Then, 20 μL of the membrane preparation (diluted in assay buffer, 2 μg total protein/well) was added and the plates were incubated for 90 min at 37 °C. Subsequently, 5 μL of a furimazine solution (final assay dilution: 1:5000 in the assay buffer) was added to each well (final assay volume: 35 μL). […] To determine the inhibition constants (Ki) of the nonlabeled ligands, data were analyzed using the one-site-fit Ki equation in PRISM9.5 (GraphPad).

CXCR2 [2] = target: T1, CXCR2; experiment: Membrane-based NanoBRET competition kinetic assay with 9a; details: kinetic competitive binding with 9a (50 nM), CXCR2_Nluc membranes; read-out: residence time tr
Description: 2.5 μL of a solution of the fluorescent ligand (9a) diluted in the assay buffer (final assay concentration: 50 nM) and 2.5 μL of a solution of the competing nonlabeled ligands (final assay concentrations: […]) or 3 for determining nonspecific binding (final assay concentration: 25 μM) in the assay buffer were transferred to a 384-well plate. […] Thereafter, 20 μL of the membrane preparation (2 μg total protein/well) was added and BRET ratios were measured with a CLARIOstar microplate reader using 620/10 and 475/30 nm emission filters over time. Specific BRET ratios were calculated as a difference of total and nonspecific binding. The obtained data were analyzed using the kinetics of the competitive binding algorithm in PRISM9.5 (GraphPad) to determine competition binding kinetics.

CXCR2 [3] = target: T1, CXCR2; experiment: Live cell NanoBRET competition binding with 9a; details: competition with 9a (50 nM), live HEK293T cells expressing CXCR2_Nluc
Description: HEK293T cells were transfected with the plasmid (5.5 μg) for CXCR2_Nluc using polyethylenimine (PEI) as transfection reagent (PEI/DNA ratio 3:1). After 24 h at 37 °C and 5% CO2, the cells were detached with DMEM and transferred to a white F-bottom 384-well plate (10,000 cells/well), which was coated with 5 μL/well poly-D-lysine (0.1 mg/mL, dissolved in water), and incubated for further 24 h at 37 °C and 5% CO2. Subsequently, the cells were washed with phosphate-buffered saline (Gibco DPBS, with CaCl2 and MgCl2). The assay medium (Gibco DMEM/F12, 15 mM HEPES, no phenol red supplemented with 5% FBS) was added and the cells were incubated at 37 °C for 30 min. […] To determine nonspecific binding, 5 μL of a solution of 3 dissolved in the assay medium (final assay concentration: 10 μM) were added.
Total, nonspecific and specific binding, which was calculated as a difference of total and nonspecific binding, were analyzed using the algorithms for one-site saturation binding in PRISM9.5 (GraphPad). To determine the inhibition constants (Ki) of the potential competitors, data were normalized to total and nonspecific binding and analyzed using the one-site-fit Ki equation in PRISM9.5 (GraphPad).

CXCR2 [4] = target: T1, CXCR2; experiment: Fluorescence microscopy, displacement of 9a in HEK293 cells stably expressing CXCR2; assay type: cell-based; details: 9a 500 nM
Description: For live cell microscopy, HEK293 cells stably expressing CXCR2 were seeded onto poly-D-lysine (PDL)-coated 8-well μ-slides (Ibidi) at a density of 1.5 × 10^5 cells per well and cultured overnight at 37 °C and 5% CO2. […] Afterward, the fluorescent CXCR2 ligand ((9a) final concentration 500 nM) was added for 60 min at 37 °C, and the cells were washed once with PBS before imaging. For immunostaining, the cells were first fixed with 4% paraformaldehyde solution, washed with PBS, and then blocked for 1 h with 10% goat serum and 1% fatty acid-free bovine serum albumin (BSA) in PBS at 37 °C. As primary antibody, anti-CXCR2 mouse IgG (R&D Systems, catalog # 48311, 1:100 in blocking solution) was added, and the cells were incubated for 1 h at 37 °C. After three washes with PBS, goat anti-mouse IgG (H+L) conjugated to FITC (Sigma-Aldrich, catalog # AP124F, 1:500 in blocking solution) was added for 1 h at 37 °C. The cells were again washed three times with PBS and counterstained with 4′,6-diamidin-2-phenylindole (DAPI) solution (0.1 μg/mL) for 15 min in the dark at room temperature, followed by three washes with PBS. […] Afterward, the fluorescent CXCR2 ligand ((9a) final concentration 500 nM) was added for 30 min at 37 °C and the cells were imaged. Microscopy was carried out on an AxioObserver.Z1 microscope (Carl Zeiss, Jena, Germany) equipped with an ApoTome imaging system and a Heating unit XL S using a Plan-Apochromat ×63/1.40 Oil objective (filter set 43 (red), 38 (green), 49 (blue)). Image processing and line scan analysis were performed with Zen blue Imaging software. The fluorescence intensity values were normalized to vehicle control.

Cc1ccc([C@H](Nc2c(Nc3cccc(C(=O)N(C)C)c3O)c(=O)c2=O)C(C)(C)C)o1 [compound 3]
Ki (CXCR2 [1]; read-out: Ki): 0.09 nM | Ki (CXCR2 [1]; read-out: pKi (converted)): 0.0794 nM | residence time (CXCR2 [2]): 474 ± 59 min | Ki (CXCR2 [3]; read-out: Ki): 0.011 nM | Ki (CXCR2 [3]; read-out: pKi (converted)): 0.00933 nM | effect of preincubation on membrane-associated 9a fluorescence (CXCR2 [4]; fixed HEK293 cells stably expressing CXCR2, competitor 10 μM): virtually blunted all membrane-associated probe fluorescence | effect of preincubation on membrane-based 9a fluorescence (CXCR2 [4]; live cell imaging, HEK293 cells stably expressing CXCR2, competitor 10 μM): very strong reduction in membrane-based fluorescence
